One data set concerns Cyperus iria. The data set is described as follows: Preemergence weed control under flooded paddy conditions, CYPIR (Rice Flatsedge). For herbicidal effect rating, CYPIR: meaning of each grade not given here. Format: in vivo. To be noted: preemergence, flooded paddy.
Data set [1] has as its system Monochoria vaginalis, Presl. The experiment in a line: Preemergence weed control under flooded paddy conditions, MOOVA (Monochoria). For herbicidal effect rating, MOOVA: meaning of each grade not given here. To be noted: preemergence, flooded paddy. Format: in vivo.
For data set [2], the system named is Cyperus serotinus, Rottb. The experiment in a line: Preemergence weed control under flooded paddy conditions, CYPSE (Flatsedge). For herbicidal effect rating, CYPSE: meaning of each grade not given here. Format: in vivo. To be noted: preemergence; for CYPSE herbicidal effect rating: Rate 0.5000 kg/ha.
Data set [3] concerns Oryza sativa, (L.) Tebonnet. The data set is described as follows: Rice tolerance to post-transplant applications under flooded paddy conditions (Example 187), ORYSAT (Rice, Tebonnet). For herbicidal effect rating ORYSAT: meaning of each grade not given here.
Another data set concerns Sagittaria pygmaea, L. The experiment in a line: Preemergence weed control under flooded paddy conditions, SAGPY (Arrowhead (Pygmaea)). For herbicidal effect rating, SAGPY: meaning of each grade not given here. Format: in vivo. Conditions: preemergence, flooded paddy.
Data set [4] has as its system Echinochloa oryzoides (Ard.) Fritsch. The data set is described as follows: Preemergence weed control under flooded paddy conditions, ECHORC (Watergrass (Calif.)). For herbicidal effect rating, ECHORC: meaning of each grade not given here. To be noted: preemergence, flooded paddy. The class given is in vivo.
[5] abbreviates: Rate 0.0320 kg/ha, rated three to four weeks after treatment.
Where [6] appears, read: Rate 0.0620 kg/ha, rated three to four weeks after treatment.
The mark [7] stands for this setting: Rate 0.1250 kg/ha, rated three to four weeks after treatment.
Where [8] appears, read: Rate 0.2500 kg/ha, rated three to four weeks after treatment.
The mark [9] stands for this setting: Rate 0.5000 kg/ha, rated three to four weeks after treatment.
Where [10] appears, read: rated three to four weeks after treatment.
Setting [11] is: Rate 0.0320 kg/ha, rated 3-4 weeks after treatment.
Where [12] appears, read: Rate 0.0620 kg/ha, rated 3-4 weeks after treatment.
[13] abbreviates: Rate 0.1250 kg/ha, rated 3-4 weeks after treatment.
[14] abbreviates: Rate 0.2500 kg/ha, rated 3-4 weeks after treatment.

The values that follow come from patent publication EP0908457B1, “3-(1,2-benzisothiazol- and isoxazol-5-Y1)-2,4(1H,3H)-pyrimidinedione or thione and 3-(1,2-benzisothiazol- and isoxazol-5-y1)-4(3H)-pyrimidinone or thione herbicidal agents” (BASF AKTIENGESELLSCHAFT, priority 1997, dated 1999).

As to `Cn1c(C(F)(F)F)cc(=O)n(-c2ccc3snc(C(C#N)=Cc4ccoc4)c3c2)c1=O` [Example 593, 1,2-Benzisothiazole-3-acetonitrile, 5-[3,6-dihydro-3-methyl-2,6-dioxo-4-(trifluoromethyl)-1(2H)-pyrimidinyl]-alpha-(3-furylmethylene)-], the “herbicidal effect rating, CYPIR” value in the data set with Cyperus iria (setting [5]) was determined as 3.0; with Cyperus iria (setting [6]), 3.0; with Cyperus iria (setting [7]) it was 4.0; in the data set with Cyperus iria (setting [8]), 5.0. Besides, the “herbicidal effect rating, MOOVA” value in data set [1] (setting [6]), in data set [1] (setting [7]) and in data set [1] (setting [8]) was 7.0 throughout. For the same compound, the “herbicidal effect rating, CYPSE” value in data set [2] (setting [7]) and in data set [2] (setting [8]) was 0.0 throughout. The “herbicidal effect rating ORYSAT” value in data set [3] (setting [5]), in data set [3] (setting [6]), in data set [3] (setting [7]) and in data set [3] (setting [8]) was 0.0 each time. Moreover, the “herbicidal effect rating, SAGPY” value with Sagittaria pygmaea, L. (setting [5]) is 0.0; in the data set with Sagittaria pygmaea, L. (setting [6]) it was 0.0; in the data set with Sagittaria pygmaea, L. (setting [7]) it was 0.0; in the data set on Sagittaria pygmaea, L. (setting [8]), 0.0. For the same compound, the “herbicidal effect rating, ECHORC” value in data set [4] (setting [5]), in data set [4] (setting [6]), in data set [4] (setting [7]) and in data set [4] (setting [8]) was 0.0 each time.
Consider `Cn1c(C(F)(F)F)cc(=O)n(-c2ccc3snc(CSCC(=O)O)c3c2)c1=O` [Example 283, Acetic acid, {{{5-[3,6-dihydro-3-methyl-2,6-dioxo-4-(trifluoromethyl)-1(2H)-pyrimidinyl]-1,2-benzisothiazol-3-yl}methyl}thio}-], for which the “CYPIR herbicidal effect rating” value came out at 0.0 in the data set on Cyperus iria (setting [5]); 4.0 with Cyperus iria (setting [6]); 8.0 in the data set with Cyperus iria (setting [7]); 9.0 in the data set with Cyperus iria (setting [8]); 9.0 with Cyperus iria (setting [9]). Moreover, the “MOOVA herbicidal effect rating” value amounted to 2.0 in data set [1] (setting [5]); 8.0 in data set [1] (setting [6]); 9.0 in data set [1] (setting [7]); 9.0 in data set [1] (setting [8]); 9.0 in data set [1] (setting [9]). Further, the “CYPSE herbicidal effect rating” value in data set [2] (setting [10]) was 0.0. For the same compound, the “ORYSAT herbicidal effect rating” value is 2.0 in data set [3] (setting [5]); 2.0 in data set [3] (setting [6]); 4.0 in data set [3] (setting [7]); 5.0 in data set [3] (setting [8]); 4.0 in data set [3] (setting [9]). The “SAGPY herbicidal effect rating” value with Sagittaria pygmaea, L. (setting [5]) is 0.0; with Sagittaria pygmaea, L. (setting [6]), 0.0; in the data set on Sagittaria pygmaea, L. (setting [7]) it was 0.0; with Sagittaria pygmaea, L. (setting [9]), 9.0. Besides, the “ECHORC herbicidal effect rating” value in data set [4] (setting [5]) is 0.0; in data set [4] (setting [6]) it was 3.4; in data set [4] (setting [7]) it was 3.4; in data set [4] (setting [8]) it was 6.0; in data set [4] (setting [9]) it was 6.0.
As for `CCOCN(C(=O)c1nsc2ccc(-n3c(=O)cc(C(F)(F)F)n(C)c3=O)cc12)S(C)(=O)=O` [Example 370, 1,2-Benzisothiazole-3-carboxamide, 5-[3,6-dihydro-3-methyl-2,6-dioxo-4-(trifluoromethyl)-1(2H)-pyrimidinyl]-N-(ethoxymethyl)-N-(methylsulfonyl)-], the “herbicidal effect rating, CYPIR” value in the data set on Cyperus iria (setting [5]) was 4.0; in the data set with Cyperus iria (setting [6]), 7.0; in the data set on Cyperus iria (setting [7]), 9.0; with Cyperus iria (setting [8]), 9.0. For the same compound, the “herbicidal effect rating, MOOVA” value is given as 7.0 in data set [1] (setting [5]), 9.0 in data set [1] (setting [6]), 9.0 in data set [1] (setting [7]) and 9.0 in data set [1] (setting [8]). In addition, the “herbicidal effect rating, CYPSE” value worked out at 0.0 in data set [2] (setting [5]), 4.0 in data set [2] (setting [6]), 7.0 in data set [2] (setting [7]) and 9.0 in data set [2] (setting [8]). Moreover, the “herbicidal effect rating ORYSAT” value is recorded as 3.0 in data set [3] (setting [5]), 4.0 in data set [3] (setting [6]), 4.0 in data set [3] (setting [7]) and 5.0 in data set [3] (setting [8]). The “herbicidal effect rating, SAGPY” value amounted to 0.0 in the data set with Sagittaria pygmaea, L. (setting [5]); 3.0 with Sagittaria pygmaea, L. (setting [6]); 7.0 in the data set on Sagittaria pygmaea, L. (setting [7]); 9.0 in the data set with Sagittaria pygmaea, L. (setting [8]). Besides, the “herbicidal effect rating, ECHORC” value in data set [4] (setting [5]) is on record as 3.0; in data set [4] (setting [6]) it was 4.0; in data set [4] (setting [7]) it was 6.0; in data set [4] (setting [8]), 7.0.
Regarding `CC/C(C=O)=C\c1nsc2ccc(-n3c(=O)cc(C(F)(F)F)n(C)c3=O)cc12` [Example 567, 1,2-Benzisothiazole-3-acrylaldehyde, 5-[3,6-dihydro-3-methyl-2,6-dioxo-4-(trifluoromethyl)-1(2H)-pyrimidinyl]-alpha-ethyl-, (E)-], the “herbicidal effect rating, CYPIR” value is listed as 4.0 in the data set on Cyperus iria (setting [5]), 9.0 with Cyperus iria (setting [6]), 4.0 in the data set on Cyperus iria (setting [7]) and 9.0 with Cyperus iria (setting [8]). Besides, the “herbicidal effect rating, MOOVA” value in data set [1] (setting [5]) is given as 0.0; in data set [1] (setting [6]), 3.0; in data set [1] (setting [7]), 9.0; in data set [1] (setting [8]), 9.0. Moreover, the “herbicidal effect rating, CYPSE” value in data set [2] (setting [5]), in data set [2] (setting [6]), in data set [2] (setting [7]) and in data set [2] (setting [8]) was 0.0 in each case. In addition, the “herbicidal effect rating ORYSAT” value in data set [3] (setting [5]) is 0.0; in data set [3] (setting [6]), 0.0; in data set [3] (setting [7]), 1.0; in data set [3] (setting [8]), 2.0. In addition, the “herbicidal effect rating, SAGPY” value was 0.0 in the data set with Sagittaria pygmaea, L. (setting [5]); 0.0 with Sagittaria pygmaea, L. (setting [6]); 0.0 in the data set with Sagittaria pygmaea, L. (setting [7]); 0.0 in the data set on Sagittaria pygmaea, L. (setting [8]). Besides, the “herbicidal effect rating, ECHORC” value in data set [4] (setting [5]) amounted to 0.0; in data set [4] (setting [6]), 0.0; in data set [4] (setting [7]), 2.0; in data set [4] (setting [8]) it was 4.0.
As for `CCCCCCC#CCCOC(=O)COc1ccc(C)cc1-c1nsc2ccc(-n3c(=O)cc(C(F)(F)F)n(C)c3=O)cc12` [Example 522, Acetic acid, {{2-{5-[3,6-dihydro-3-methyl-2,6-dioxo-4-(trifluoromethyl)-1(2H)-pyrimidinyl]-1,2-benzisothiazol-3-yl}-p-tolyl}oxy}-, 3-decynyl ester], the “herbicidal effect rating, CYPIR” value in the data set with Cyperus iria (setting [11]) was 0.0; with Cyperus iria (setting [12]) it was 0.0; in the data set with Cyperus iria (setting [13]), 0.0; with Cyperus iria (setting [14]), 2.0. Moreover, the “herbicidal effect rating, MOOVA” value in data set [1] (setting [11]), in data set [1] (setting [12]), in data set [1] (setting [13]) and in data set [1] (setting [14]) was 9.0 throughout. The “herbicidal effect rating, CYPSE” value in data set [2] (setting [11]), in data set [2] (setting [12]), in data set [2] (setting [13]) and in data set [2] (setting [14]) was 0.0 throughout. Also, the “herbicidal effect rating ORYSAT” value in data set [3] (setting [11]) is listed as 2.5; in data set [3] (setting [12]), 4.0; in data set [3] (setting [13]), 4.0; in data set [3] (setting [14]), 4.5. For the same compound, the “herbicidal effect rating, SAGPY” value in the data set with Sagittaria pygmaea, L. (setting [11]) was determined as 0.0; with Sagittaria pygmaea, L. (setting [12]), 0.0; with Sagittaria pygmaea, L. (setting [13]), 0.0; in the data set with Sagittaria pygmaea, L. (setting [14]), 0.0. For the same compound, the “herbicidal effect rating, ECHORC” value in data set [4] (setting [11]) is 5.5; in data set [4] (setting [12]) it was 6.5; in data set [4] (setting [13]), 8.0; in data set [4] (setting [14]), 9.0.
For `COC(=O)CS(=O)(=O)Cc1nsc2ccc(-n3c(=O)cc(C(F)(F)F)n(C)c3=O)cc12` [Example 272, Acetic acid, {{{5-[3,6-dihydro-3-methyl-2,6-dioxo-4-(trifluoromethyl)-1(2H)-pyrimidinyl]-1,2-benzisothiazol-3-yl}methyl}sulfonyl}-, methyl ester], the “CYPIR herbicidal effect rating” value in the data set on Cyperus iria (setting [9]) amounted to 0.0. Besides, the “MOOVA herbicidal effect rating” value in data set [1] (setting [9]) is 0.0. For the same compound, in data set [2] (setting [10]), the “CYPSE herbicidal effect rating” value worked out at 0.0. The “ORYSAT herbicidal effect rating” value in data set [3] (setting [9]) worked out at 0.0. For the same compound, the “SAGPY herbicidal effect rating” value with Sagittaria pygmaea, L. (setting [9]) was 0.0. Besides, in data set [4] (setting [9]), the “ECHORC herbicidal effect rating” value was 0.0.
